These are literature values, as cited in patent US20230391768A2, “IMIDAZOPYRIDINE DERIVATIVES AND AZA-IMIDAZOPYRIDINE DERIVATIVES AS JANUS KINASE 2 INHIBITORS AND USES THEREOF” (Dana-Farber Cancer Institute, Inc., priority 2018, published 2023).

The IC50 is the concentration that inhibits the measured activity by half.

A value given as a limit tells only on which side of the number the result lay.

The subject of this series is cell lines or patient-derived xenografts from patients with CRLF2-rearranged B-ALL. Particulars: cited from earlier work.

Turning to `N#CC[C@H](C1CCCC1)n1cc(-c2ncnc3[nH]ccc23)cn1` [Ruxolitinib], the IC50 is over 20 µM.
